Data as given in patent publication US20140066394A1, “Substituted 6-(Benzylamino) Purine Riboside Derivatives, Use Thereof and Compositions Containing These Derivatives” (Biopatterns, S.R.O, priority 2009, published 2014).

Key:
[1] = tested on: human skin melanoma G-361; assay: In vitro cytotoxicity, Calcein AM assay, G-361; assay type: cell-based; details: Homo sapiens, G-361, 72 hours
Excerpt: (§1) Low cytotoxicity of the compounds is the major property determining the cosmetic use. One of the parameters used, as the basis for cytotoxicity assays, is the metabolic activity of viable cells. For example, a microtiter assay, which uses the Calcein AM, is now widely used to quantitate cell proliferation and cytotoxicity. For instance, this assay is used in drug screening programs and in chemosensitivity testing. Because only metabolically active cells cleave Calcein AM, these assays detect viable cells exclusively. The quantity of […] Calcein AM corresponds to the number of vital cells in the culture.
(§2) Human T-lymphoblastic leukemia cell line CEM; promyelocytic HL-60 and monocytic U937 leukemias; breast carcinoma cell lines MCF-7, BT549, MDA-MB-231; glioblastoma U87MG cells; cervical carcinoma cells HELA; sarcoma cells U2OS and Saos2; hepatocellular carcinoma HepG2; mouse fibroblasts NIH3T3; mouse immortalized bone marrow macrophages B2.4 and B10A.4; P388D1 and L1210 leukemia; B16 and B16F10 melanomas; human osteosarcoma HOS; human myeloid leukemia K-562; human skin melanoma G-361 were used for routine screening of compounds. The cells were maintained in Nunc/Corning 80 cm^2 plastic tissue culture flasks and cultured in cell culture medium (DMEM with 5 g/l glucose, 2 mM glutamine, 100 U/mL penicillin, 100 μg/mL streptomycin, 10% fetal calf serum and sodium bicarbonate).
(§3) The cell suspensions that were prepared and diluted according to the particular cell type and the expected target cell density (2.500-30.000 cells per well based on cell growth characteristics) were added by pipette ([…]) into 96/well microtiter plates. Inoculates were allowed a pre-incubation period of 24 hours at 37° C. and 5% CO2 for stabilisation. Four-fold dilutions of the intended test concentration were added at time zero in 20 μl aliquots to the microtiter plate wells. Usually, the compound tested was evaluated at six 4-fold dilutions. In routine testing, the highest well concentration was 100 μM, but it can be the matter of change dependent on the agent. All drug concentrations were examined in duplicates. Incubations of cells with the tested compounds lasted for 72 hours at 37° C., in 5% CO2 atmosphere and 100% humidity. At the end of the incubation period, the cells were assayed by using Calcein AM. Ten microliters of the stock solution were pipetted into each well and incubated for 1 hour. Fluorescence (FD) was measured with the Labsystem FIA Reader Fluoroscan Ascent (UK). The tumour cell survival (GI50) was calculated using the following equitation: TCS=(FDdrug exposed well/mean FDeontrol wells)×100%. The GI50 value, the drug concentration lethal to 50% of the tumour cells, was calculated from the obtained dose response curves.
(§4) Zero cytotoxicity of the novel compounds is the basic prerequisite for agricultural and tumor-unrelated applications. The cytoxicity of the novel compounds was tested on a panel of cell lines of different histogenetic and species origin (Table 9). We show herein that equal activities were found in all tumour cell lines tested, however, the non-malignant cells, e.g. NIH3T3 fibroblasts and normal human lymphocytes, were resistant to 2,6-disubstituted purine ribosides induced cytotoxicity. The compounds listed in Tab. 9 can be divided into 2 groups. The first group contains “classical cytokinins” represented by 6-substituted purine ribosides (which are known in the prior art). The second group contains the novel 2,6-disubstituted derivatives of these compounds. […] GI50 for NIH3T3 fibroblasts and normal human lymphocytes was always higher than 100 μM. The novel derivatives show no toxicity to normal and tumour cells in concentrations about 100 μM and thus are more suitable for agricultural applications than “classical cytokinins” (6-substituted purine riboside derivatives).

[2] = tested on: β-adrenergic receptors; assay: Isoproterenol-induced cAMP synthesis in rat C6 glioma (anti-inflammatory activity); assay type: cell-based
Experimental: Anti-inflammatory activity of several of the 2-substituted 6-benzylaminopurine riboside derivatives of this invention was determined; kinetin riboside was also evaluated as a control. Rat C6 glioma (ATCC No. CCL107) was cultivated in monolayer in serum-free chemically defined medium containing Ham's F10/minimal essential medium (1:1 v/v), 2 mM L-glutamine, 1% (v/v) minimal essential medium vitamins (100×), 1% (v/v) minimal essential medium nonessential amino acids (100×), 100 U/mL penicillin, […], and 30 nM sodium selenite. Incubation was performed at 37° C. in a humidified atmosphere. The assays were performed in the logaritmic growth phase at a density of 2.5×10^5 cells/cm^2.
Intracellular cAMP synthesis was induced by addition of 5 mM (−)-isoproterenol; various amounts of test compounds were added at the same time as the (−)-isoproterenol. After […] incubation at 37° C., the medium was removed and the cellular amount of cAMP was determined using the cAMP-enzyme immunoassay kit from Amersham. The I50 value was determined from a dose-response curve in duplicate. The effect of nine purine analogues was measured after simultaneous addition with isoproterenol.
As P2Y1-like and A2 purinergic receptors, negatively and positively coupled to adenylate cyclase respectively, are present on rat C6 glioma as to be determined if the modulation of the synthesis of cAMP is due to inhibition of the activation of β-adrenergic receptors by isoproterenol are due to activation of purinergic receptors.

[3] = tested on: promyelocytic HL-60 leukemia; assay: In vitro cytotoxicity, Calcein AM assay, HL60; assay type: cell-based, human; details: Homo sapiens, HL-60, 72 hours
Excerpt: as §1, §2, §3, §4

COc1cccc(CNc2nc(Cl)nc3c2ncn3C2OC(CO)C(O)C2O)c1O (stereo not shown) [Compound 10, 2-Chloro-6-(2-hydroxy-3-methoxybenzylamino)purine riboside]
GI50 [1]: > 100 µM | Effect (modulation of isoproterenol-induced cAMP synthesis) ([2]; added simultaneously with (−)-isoproterenol): inhibition | IC50 ([2]; cellular cAMP by enzyme immunoassay, dose-response curve in duplicate, read-out: I50): 7.5 ± 1 µM | GI50 [3]: > 100 µM
